Reference: patent US9012617B2, “Detection reagents for tyrosine kinase activity and methods of use thereof” (The Trustees of The University of Pennsylvania, priority 2011, dated 2015)

Assays:
EphA4 = target: T1, EphA4 (Homo sapiens, UniProt P54764); assay: EphA4 kinetics imaging in HEK 293T cells transfected with GPhosEphA and EphA4; assay type: cell-based; settings: Disassociation rate of EphA4 receptor after Genistien treatment (10 μm)
T1 construct: expressed in transfected cells; host or cells: HEK 293T
T1 sequence (P54764 20-986, species assumed): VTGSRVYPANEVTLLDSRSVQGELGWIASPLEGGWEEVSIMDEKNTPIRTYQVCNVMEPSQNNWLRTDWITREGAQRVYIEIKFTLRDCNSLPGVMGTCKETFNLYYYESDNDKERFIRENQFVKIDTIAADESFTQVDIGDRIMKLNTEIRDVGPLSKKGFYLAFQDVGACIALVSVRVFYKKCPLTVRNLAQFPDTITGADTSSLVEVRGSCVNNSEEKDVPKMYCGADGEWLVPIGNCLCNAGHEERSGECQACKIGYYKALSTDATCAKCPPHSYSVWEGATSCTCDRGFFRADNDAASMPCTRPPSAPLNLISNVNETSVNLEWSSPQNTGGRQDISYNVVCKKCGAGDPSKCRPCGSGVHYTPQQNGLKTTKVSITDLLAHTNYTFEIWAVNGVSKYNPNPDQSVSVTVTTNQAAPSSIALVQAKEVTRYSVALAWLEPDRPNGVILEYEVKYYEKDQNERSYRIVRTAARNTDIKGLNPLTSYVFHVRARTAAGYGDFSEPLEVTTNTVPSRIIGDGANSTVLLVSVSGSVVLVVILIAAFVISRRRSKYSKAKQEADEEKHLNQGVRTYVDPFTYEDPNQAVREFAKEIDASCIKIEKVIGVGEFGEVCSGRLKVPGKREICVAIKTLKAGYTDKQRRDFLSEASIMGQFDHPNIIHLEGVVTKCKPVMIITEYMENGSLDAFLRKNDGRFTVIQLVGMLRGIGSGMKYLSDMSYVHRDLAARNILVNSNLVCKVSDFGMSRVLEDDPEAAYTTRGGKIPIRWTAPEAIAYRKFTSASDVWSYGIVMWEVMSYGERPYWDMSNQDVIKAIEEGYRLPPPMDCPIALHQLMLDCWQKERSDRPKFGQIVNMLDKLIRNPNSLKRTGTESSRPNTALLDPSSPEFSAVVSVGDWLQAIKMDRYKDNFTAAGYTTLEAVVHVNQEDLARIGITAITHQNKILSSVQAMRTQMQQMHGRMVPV
Procedure: (§1) Cells were imaged in ACSF on a spinning disk confocal (PerkinElmer) encased in a humidified temperature controlled incubator attached to a CCD-EM camera (Hamamatsu). Images were taken as a […] z-projection ([…] step size) every 20 seconds. After a 2 minute baseline, cells were treated and imaged with either DyLight 649 (Jackson Immunoresearch) labeled EphrinB2-FC or DyLight 649 labeled EphrinA1-FC (both at 500 ng/ml) for 15 minutes. Before continuing the experiment, bath was exchanged with fresh ASCF. Genistien (10 μm; Calbiochem) was added to previously imaged cells after a 2 minute baseline and imaged for an additional 15 minutes. Images were collected via Volocity software and analyzed using NIH ImageJ as detailed below.
(§2) Image analysis was conducted off-line using NIH ImageJ using both custom and standard macros. […] Ratio change was calculated as DF/F=(F−F0)/F0 (Yuste and Konnerth, 2005). Significance between conditions was determined by two-way ANOVA with Bonferroni post-hoc tests. Receptor “on” kinetics were calculated as one-phase association, and “off” kinetics were calculated as one-phase decay. All statistical measures were conducted using GraphPad Prism version 5.00 (GraphPad Software, San Diego, Calif.) on a per coverslip basis with several cells analyzed per coverslip from a minimum of three independent experiments. […]

EphB2 = target: T2, EphB2 (Homo sapiens, UniProt P29323); assay: EphB2 kinetics imaging in HEK 293T cells transfected with GPhosEphB and EphB2; assay type: cell-based; settings: Disassociation rate of EphB2 receptor after Genistien treatment (10 μm)
T2 construct: expressed in transfected cells; host or cells: HEK 293T
T2 sequence (P29323 19-1055): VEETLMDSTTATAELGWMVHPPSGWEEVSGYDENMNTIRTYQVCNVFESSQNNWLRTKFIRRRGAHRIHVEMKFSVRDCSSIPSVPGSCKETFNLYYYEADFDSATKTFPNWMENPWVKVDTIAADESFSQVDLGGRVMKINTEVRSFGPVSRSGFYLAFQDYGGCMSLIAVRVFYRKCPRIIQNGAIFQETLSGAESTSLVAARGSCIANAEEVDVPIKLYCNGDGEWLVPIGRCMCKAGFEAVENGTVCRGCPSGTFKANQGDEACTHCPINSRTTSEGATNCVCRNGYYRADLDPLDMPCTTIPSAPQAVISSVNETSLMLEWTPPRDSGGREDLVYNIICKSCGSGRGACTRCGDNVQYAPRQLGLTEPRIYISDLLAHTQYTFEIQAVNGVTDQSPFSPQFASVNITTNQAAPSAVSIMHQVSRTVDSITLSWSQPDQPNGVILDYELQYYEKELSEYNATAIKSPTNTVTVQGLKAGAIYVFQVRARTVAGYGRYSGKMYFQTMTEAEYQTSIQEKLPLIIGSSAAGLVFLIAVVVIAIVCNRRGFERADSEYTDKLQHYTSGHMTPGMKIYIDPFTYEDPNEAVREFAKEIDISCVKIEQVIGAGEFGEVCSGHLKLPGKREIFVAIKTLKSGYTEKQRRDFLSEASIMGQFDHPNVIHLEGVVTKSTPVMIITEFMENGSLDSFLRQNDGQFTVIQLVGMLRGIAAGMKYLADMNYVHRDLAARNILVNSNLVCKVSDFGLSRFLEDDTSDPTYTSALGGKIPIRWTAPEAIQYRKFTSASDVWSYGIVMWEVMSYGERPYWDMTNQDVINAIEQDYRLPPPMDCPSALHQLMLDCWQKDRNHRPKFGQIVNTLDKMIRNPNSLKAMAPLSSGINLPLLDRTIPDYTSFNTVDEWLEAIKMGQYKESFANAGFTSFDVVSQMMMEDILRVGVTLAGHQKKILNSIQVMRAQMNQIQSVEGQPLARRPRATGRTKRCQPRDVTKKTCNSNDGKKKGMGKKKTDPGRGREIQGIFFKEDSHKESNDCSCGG
Procedure: as §1, §2

## O=c1c(-c2ccc(O)cc2)coc2cc(O)cc(O)c12 [Genistein]
EphA4
  One phase decay Tau: 0.8484
EphB2
  One phase decay Tau: 1.588
